From US20100190794A1, “Herbicidally Active Composition” (BASF SE, priority 2007, published 2010)

Columns and labels:
LOLMU = test: greenhouse test, pre-emergence treatment; type: in vivo, Lolium multiflorum
From the text: (§1) The culture containers used were plastic pots containing loamy sand with approximately 3.0% of humus as substrate. The seeds of the test plants were sown separately for each species.
(§2) For the pre-emergence treatment, the active compounds, suspended or emulsified in water, were applied directly after sowing by means of finely distributing nozzles. The containers were irrigated gently to promote germination and growth and subsequently covered with transparent plastic hoods until the plants had rooted. This cover caused uniform germination of the test plants unless this was adversely affected by the active compounds.
(§3) Depending on the species, the plants were kept at 10-25° C. and 20-35° C., respectively. The test period extended over 2 to 4 weeks. During this time, the plants were tended and their response to the individual treatments was evaluated.
(§4) Evaluation was carried out using a scale from 0 to 100. 100 means no emergence of the plants, or complete destruction of at least the above-ground parts, and 0 means no damage or normal course of growth. Good herbicidal activity is given at values of at least 70, and very good herbicidal activity is given at values of at least 85.
(§5) The respective stated components A and B, and if appropriate, C were formulated as a 5% by weight or 10% by weight strength emulsion concentrate or a commercially available formulation of component B was used and, with addition of the amount of solvent system, introduced into the spray liquor used for applying the active compound. In the examples, the solvent used was water.
(§6) The test period extended over 20 or 21 days. During this time, the plants were tended, and their reactions to the treatment with active compound was monitored.
(§7) What was evaluated was the damage by the chemical compositions using a scale of from 0 to 100%, in comparison to the untreated control plants. 0 means no damage, and 100 means complete destruction of the plants.
(§8) In the examples below, using the method of S. R. Colby (1967) “Calculating synergistic and antagonistic responses of herbicide combinations”, Weeds 15, p. 22 ff., the value E, which is expected if the activity of the individual active compounds is only additive, was calculated.
(§9) where X=percent activity using active compound A at an application rate a; Y=percent activity using active compound B at an application rate b; E=expected activity (in %) by A+B at application rates a+b.
(§10) If the value found in experiments is higher than the value E calculated according to Colby, a synergistic effect is present.

ALOMY = test: greenhouse test, pre-emergence treatment; type: in vivo, Alopecurus myosuroides
From the text: as §1, §2, §3, §4, §5, §6, §7, §8, §9, §10

LAMPU = test: greenhouse test, pre-emergence treatment; type: in vivo, Lamium purpureum
From the text: as §1, §2, §3, §4, §5, §6, §7, §8, §9, §10

APESV = test: greenhouse test, pre-emergence treatment; type: in vivo, Apera spica-venti; conditions: 32 g/ha a.s., Use Example 21
From the text: as §1, §2, §3, §4, §5, §6, §7, §8, §9, §10

SETVI [1] = test: greenhouse test, post-emergence treatment; type: in vivo, Setaria viridis; conditions: 125 g/ha a.s., Use Example 18
Experimental: as §1
(§11) For the post-emergence treatment, the test plants were grown to a plant height of from 3 to 15 cm, depending on the plant habit, and only then treated with the active compounds which had been suspended or emulsified in water. To this end, the test plants were either sown directly and grown in the same containers, or they were first grown separately as seedlings and transplanted into the test containers a few days prior to treatment.
as §3, §4, §5, §6, §7, §8, §9, §10

DIGSA [2] = test: greenhouse test, post-emergence treatment; type: in vivo, Digitaria sanguinalis; conditions: 125 g/ha a.s., Use Example 18
Experimental: as §1, §11, §3
as §4, with “85. […]” for “85.”
as §6
(§12) What was evaluated was the damage by the chemical compositions using a scale of from 0 to 100%, in comparison to the untreated control plants. […]
(§13) In the examples below, using the method of S. R. Colby (1967) “Calculating synergistic and antagonistic responses of herbicide combinations”, Weeds 15, p. 22 ff., the value E, which is expected if the activity of the individual active compounds is only additive, was calculated. […]
as §10

ECHCG = test: greenhouse test, pre-emergence treatment; type: in vivo, Echinochloa crus-galli; conditions: Use Example 22
From the text: as §1, §2, §3, §4, §5, §6, §7, §8, §9, §10

BRAPL = test: greenhouse test, pre-emergence treatment; type: in vivo, Brachiaria plantaginea; conditions: Use Example 12
From the text: as §1, §2, §3, §4, §5, §6, §7, §8, §9, §10

DIGSA [3] = test: greenhouse test, pre-emergence treatment; type: in vivo, Digitaria sanguinalis; conditions: Use Example 22
From the text: as §1, §2, §3, §4, §5, §6, §7, §8, §9, §10

SETVI [4] = test: greenhouse test, pre-emergence treatment; type: in vivo, Setaria viridis; conditions: 25 g/ha a.s., Use Example 11
From the text: as §1, §2
Depending on the species, the plants were kept at 10-25° C. and 20-35° C., respectively. […] During this time, the plants were tended and their response to the individual treatments was evaluated. […]
as §6, §12, §13

SETFA = test: greenhouse test, pre-emergence treatment; type: in vivo, Setaria faberi
From the text: as §1, §2, §3, §4, §5, §6, §7, §8, §9, §10

SOLNI = test: greenhouse test, pre-emergence treatment; type: in vivo, Solanum nigrum L.; conditions: Use Example 22
From the text: as §1, §2, §3, §4, §5, §6, §7, §8, §9, §10

CC(C)N(C(=O)COc1nnc(C(F)(F)F)s1)c1ccc(F)cc1 [Flufenacet, reference compound]
Herbicidal action in % after 20 days against LOLMU (LOLMU; 32 g/ha a.s., Use Example 21): 65% | Herbicidal action in % after 20 days against LOLMU (LOLMU; 62.5 g/ha a.s., Use Example 13): 40% | Herbicidal action in % after 20 days against LOLMU (LOLMU; 125 g/ha a.s., Use Example 13): 70% | Herbicidal action in % after 20 days against ALOMY (ALOMY; 32 g/ha a.s., Use Example 21): 70% | Herbicidal action in % after 20 days against ALOMY (ALOMY; 62.5 g/ha a.s., Use Example 13): 75% | Herbicidal action in % after 20 days against ALOMY (ALOMY; 125 g/ha a.s., Use Example 13): 90% | Herbicidal action in % after 20 days against LAMPU (LAMPU; 32 g/ha a.s., Use Example 21): 20% | Herbicidal action in % after 20 days against APESV (APESV): 95% | Herbicidal action in % after 20 days against SETVI (SETVI [1]): 70% | Herbicidal action in % after 20 days against DIGSA (DIGSA [2]): 75%

Cn1nc(C(F)(F)F)c(CS(=O)(=O)C2=NOC(C)(C)C2)c1OC(F)F [Pyroxasulfone]
Herbicidal action in % after 21 days against LOLMU (LOLMU; 25 g/ha a.s., Use Example 11): 90% | Herbicidal action in % after 20 days against ECHCG (ECHCG; 6.25 g/ha a.s.): 55% | Herbicidal action in % after 20 days against ECHCG (ECHCG; 13 g/ha a.s.): 85% | Herbicidal action in % after 20 days against BRAPL (BRAPL; 12.5 g/ha a.s.): 40% | Herbicidal action in % after 20 days against BRAPL (BRAPL; 25 g/ha a.s.): 75% | Herbicidal action in % after 20 days against DIGSA (DIGSA [3]; 6.25 g/ha a.s.): 70% | Herbicidal action in % after 20 days against DIGSA (DIGSA [3]; 13 g/ha a.s.): 95% | Herbicidal action in % after 21 days against SETVI (SETVI [4]): 100% | Herbicidal action in % after 21 days against LAMPU (LAMPU; 25 g/ha a.s., Use Example 11): 55% | Herbicidal action in % after 20 days against SETFA (SETFA; 6.25 g/ha a.s., Use Example 22): 75% | Herbicidal action in % after 20 days against SETFA (SETFA; 12.5 g/ha a.s., Use Example 12): 75% | Herbicidal action in % after 20 days against SETFA (SETFA; 13 g/ha a.s., Use Example 22): 98% | Herbicidal action in % after 20 days against SETFA (SETFA; 25 g/ha a.s., Use Example 12): 98% | Herbicidal action in % after 20 days against SOLNI (SOLNI; 6.25 g/ha a.s.): 40% | Herbicidal action in % after 20 days against SOLNI (SOLNI; 13 g/ha a.s.): 85%
